Measurements taken from the supplement of paper PMC10307832.

Columns and labels:
Test in all cases: relative viability (nuclei count vs DMSO), 5 days (fraction); higher = more cells survive
[1] = compound: CN(C)CC1=CC(=CC=C1)N=C(C2=CC=CC=C2)C3=C(NC4=C3C=CC(=C4)C(=O)N(C)C)O + COc1cccc2cc(-c3nc([C@H]4CC[C@H](C(=O)O)CC4)n4ncnc(N)c34)[nH]c12 [OSI-027] (partner 0.5 µM)
Procedure, shortened: (§1)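 Lung cancer cell lines, seeded in 1536-well plates, were treated the following day by pin tool with a single drug or with five library-drug doses (not always all listed) in √10 steps on top of a fixed anchor-drug dose. Cells were fixed and nuclei stained in one step after 5 days, and nuclei were counted. Relative viability is the nuclei count for treated wells divided by that for vehicle wells, reported as medians of duplicate plates.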

[2] = compound: CN(C)CC1=CC(=CC=C1)N=C(C2=CC=CC=C2)C3=C(NC4=C3C=CC(=C4)C(=O)N(C)C)O + CC(=O)Nc1cccc(-n2c(=O)n(C3CC3)c(=O)c3c(Nc4ccc(I)cc4F)n(C)c(=O)c(C)c32)c1 [Trametinib] (partner 0.02 µM)
Procedure, shortened: as §1

[3] = compound: CN(C)CC1=CC(=CC=C1)N=C(C2=CC=CC=C2)C3=C(NC4=C3C=CC(=C4)C(=O)N(C)C)O + N=C(N)NC(=N)NCCc1ccccc1 [Phenformin] (partner 250 µM)
Procedure, shortened: as §1

[4] = compound: CN(C)CC1=CC(=CC=C1)N=C(C2=CC=CC=C2)C3=C(NC4=C3C=CC(=C4)C(=O)N(C)C)O + C[C@@H](Oc1cc(-c2cnn(C3CCNCC3)c2)cnc1N)c1c(Cl)ccc(F)c1Cl [Crizotinib] (partner 1 µM)
Procedure, shortened: as §1

Cell Line | relative viability ([1]; first compound 0.08 µM) | relative viability ([1]; first compound 0.253 µM) | relative viability ([1]; first compound 0.8 µM) | relative viability ([1]; first compound 2.53 µM) | relative viability ([1]; first compound 8 µM) | relative viability ([2]; first compound 0.253 µM) | relative viability ([2]; first compound 0.8 µM) | relative viability ([2]; first compound 2.53 µM) | relative viability ([2]; first compound 8 µM) | relative viability ([3]; first compound 0.08 µM) | relative viability ([3]; first compound 0.253 µM) | relative viability ([3]; first compound 0.8 µM) | relative viability ([3]; first compound 2.53 µM) | relative viability ([3]; first compound 8 µM) | relative viability ([4]; first compound 0.08 µM) | relative viability ([4]; first compound 0.253 µM) | relative viability ([4]; first compound 0.8 µM) | relative viability ([4]; first compound 2.53 µM) | relative viability ([4]; first compound 8 µM) | relative viability ([2]; first compound 0.08 µM)
NCI-H23 | 0.609 | 0.696 | 0.518 | 0.683 | 0.378 | 0.503 | 0.357 | 0.404 | 0.339 | 0.796 | 0.781 | 0.787 | 0.764 | 0.691 | 0.376 | 0.538 | 0.503 | 0.483 | 0.417 | 
NCI-H322M | 0.581 | 0.562 | 0.555 | 0.499 | 0.475 | 0.497 | 0.477 | 0.487 | 0.468 | 0.685 | 0.801 | 0.669 | 0.631 | 0.551 | 0.931 | 0.899 | 0.928 | 0.887 | 0.853 | 0.49
NCI-H358 | 0.824 | 0.706 | 0.633 | 0.671 | 0.549 | 0.171 | 0.125 | 0.092 | 0.129 | 0.349 | 0.343 | 0.201 | 0.303 | 0.313 | 0.506 | 0.501 | 0.513 | 0.484 | 0.443 | 0.146
NCI-H441 | 0.522 | 0.703 | 0.74 | 0.568 | 0.39 | 0.508 | 0.354 | 0.444 | 0.462 | 0.828 | 0.816 | 0.784 | 0.878 | 0.886 | 0.463 | 0.748 | 1.04 | 0.627 | 0.629 | 0.495
NCI-H460 | 0.615 | 0.727 | 0.824 | 0.65 | 0.335 | 0.133 | 0.195 | 0.0771 | 0.163 | 0.592 | 0.491 | 0.558 | 0.43 | 0.449 | 0.824 | 0.811 | 0.998 | 0.819 | 0.733 | 0.142
NCI-H520 | 0.213 | 0.247 | 0.267 | 0.3 | 0.218 | 0.703 | 0.664 | 0.594 | 0.497 | 0.477 | 0.564 | 0.508 | 0.429 | 0.347 | 0.713 | 0.722 | 0.833 | 0.705 | 0.71 | 0.493
NCI-H596 | 0.738 | 1.03 | 0.639 | 0.744 | 0.659 | 0.873 | 0.921 | 0.821 | 0.723 | 0.693 | 0.625 | 0.769 | 0.806 | 0.742 | 1 | 0.952 | 1.04 | 0.968 | 0.785 | 0.809
NCI-H647 | 0.711 | 0.772 | 0.754 | 0.461 | 0.539 | 0.492 | 0.434 | 0.388 | 0.299 | 0.521 | 0.539 | 0.463 | 0.555 | 0.318 | 1.01 | 0.987 | 1.08 | 0.727 | 0.671 | 0.463
